Measurements taken from the kinase profiling compilation of Christmann-Franck et al. (2016).

How the values were obtained:
Assay in all cases: split-luciferase competition binding
[1] = biological target: PRKCI (human) (UniProt P41743); conditions: compound 10.0 µM
[2] = biological target: RPS6KA5 KD1 (human) (UniProt O75582); conditions: compound 10.0 µM
[3] = biological target: SGK3 (human) (UniProt Q96BR1); conditions: compound 10.0 µM
[4] = biological target: PRKCG (human) (UniProt P05129); conditions: compound 10.0 µM
[5] = biological target: PRKCE (human) (UniProt Q02156); conditions: compound 10.0 µM
[6] = biological target: PRKACB (human) (UniProt P22694); conditions: compound 10.0 µM
[7] = biological target: RPS6KA6 KD1 (human) (UniProt Q9UK32); conditions: compound 10.0 µM
Chain of RPS6KA6 KD1 (human) (Q9UK32 whole entry, looked up): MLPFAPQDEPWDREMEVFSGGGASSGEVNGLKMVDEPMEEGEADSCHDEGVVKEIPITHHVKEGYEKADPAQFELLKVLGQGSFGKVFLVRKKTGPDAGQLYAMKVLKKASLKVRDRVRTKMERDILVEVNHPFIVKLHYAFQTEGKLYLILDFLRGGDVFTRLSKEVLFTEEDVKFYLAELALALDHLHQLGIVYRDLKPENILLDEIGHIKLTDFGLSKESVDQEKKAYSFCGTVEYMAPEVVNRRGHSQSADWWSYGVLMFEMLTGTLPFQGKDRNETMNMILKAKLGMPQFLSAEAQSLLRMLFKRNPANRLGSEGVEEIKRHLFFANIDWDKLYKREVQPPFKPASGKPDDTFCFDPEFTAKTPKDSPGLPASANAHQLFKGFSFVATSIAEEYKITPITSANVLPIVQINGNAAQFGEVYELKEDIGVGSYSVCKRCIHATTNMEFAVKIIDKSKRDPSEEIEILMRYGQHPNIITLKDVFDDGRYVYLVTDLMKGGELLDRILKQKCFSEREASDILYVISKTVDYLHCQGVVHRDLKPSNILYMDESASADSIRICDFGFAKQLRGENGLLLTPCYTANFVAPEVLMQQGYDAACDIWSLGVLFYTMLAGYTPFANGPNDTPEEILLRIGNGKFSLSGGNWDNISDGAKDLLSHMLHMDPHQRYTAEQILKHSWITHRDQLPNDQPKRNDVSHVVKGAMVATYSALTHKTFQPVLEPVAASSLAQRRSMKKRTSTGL

[8] = biological target: PRKX (human) (UniProt P51817); conditions: compound 10.0 µM
[9] = biological target: AURKC (human) (UniProt Q9UQB9); conditions: compound 10.0 µM
[10] = biological target: PRKCQ (human) (UniProt Q04759); conditions: compound 10.0 µM
[11] = biological target: SGK2 (human) (UniProt Q9HBY8); conditions: compound 10.0 µM
[12] = biological target: AKT1 (human) (UniProt P31749); conditions: compound 10.0 µM
[13] = biological target: AURKA (human) (UniProt O14965); conditions: compound 10.0 µM
[14] = biological target: DMPK (human) (UniProt Q09013); conditions: compound 10.0 µM
[15] = biological target: AKT3 (human) (UniProt Q9Y243); conditions: compound 10.0 µM
Chain of AKT3 (human) (Q9Y243 whole entry, looked up): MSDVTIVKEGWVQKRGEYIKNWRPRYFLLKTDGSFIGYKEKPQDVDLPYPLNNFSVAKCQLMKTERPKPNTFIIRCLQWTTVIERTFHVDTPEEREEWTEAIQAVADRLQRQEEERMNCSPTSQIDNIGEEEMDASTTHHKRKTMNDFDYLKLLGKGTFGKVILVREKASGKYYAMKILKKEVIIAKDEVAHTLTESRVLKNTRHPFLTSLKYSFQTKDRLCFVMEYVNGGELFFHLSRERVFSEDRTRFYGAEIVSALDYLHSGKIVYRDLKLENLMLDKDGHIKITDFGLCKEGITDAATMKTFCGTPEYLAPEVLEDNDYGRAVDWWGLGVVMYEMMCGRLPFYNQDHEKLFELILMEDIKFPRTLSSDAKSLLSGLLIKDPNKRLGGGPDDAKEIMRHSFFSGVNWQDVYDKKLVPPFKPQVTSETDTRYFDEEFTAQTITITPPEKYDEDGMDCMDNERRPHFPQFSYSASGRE

[16] = biological target: PRKCD (human) (UniProt Q05655); conditions: compound 10.0 µM
[17] = biological target: AURKB (human) (UniProt Q96GD4); conditions: compound 10.0 µM
Chain of AURKB (human) (Q96GD4 whole entry, looked up): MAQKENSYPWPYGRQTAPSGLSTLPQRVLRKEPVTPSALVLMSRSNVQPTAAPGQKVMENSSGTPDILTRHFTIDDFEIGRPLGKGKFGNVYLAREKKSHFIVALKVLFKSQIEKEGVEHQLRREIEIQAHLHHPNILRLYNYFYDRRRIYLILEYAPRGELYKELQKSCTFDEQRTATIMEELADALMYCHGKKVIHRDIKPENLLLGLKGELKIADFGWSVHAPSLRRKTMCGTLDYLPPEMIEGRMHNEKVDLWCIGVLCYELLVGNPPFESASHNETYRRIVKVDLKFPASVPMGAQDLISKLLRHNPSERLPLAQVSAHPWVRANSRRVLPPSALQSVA

[18] = tested on: PRKACA (mouse); conditions: compound 10.0 µM; accession and sequence are those of the human protein
[19] = biological target: AKT2 (human) (UniProt P31751); conditions: compound 10.0 µM
[20] = biological target: PDPK1 (human) (UniProt O15530); conditions: compound 10.0 µM
[21] = biological target: RPS6KA1 KD1 (human) (UniProt Q15418); conditions: compound 10.0 µM
[22] = biological target: RPS6KA4 KD1 (human) (UniProt O75676); conditions: compound 10.0 µM
Chain of RPS6KA4 KD1 (human) (O75676 whole entry, looked up): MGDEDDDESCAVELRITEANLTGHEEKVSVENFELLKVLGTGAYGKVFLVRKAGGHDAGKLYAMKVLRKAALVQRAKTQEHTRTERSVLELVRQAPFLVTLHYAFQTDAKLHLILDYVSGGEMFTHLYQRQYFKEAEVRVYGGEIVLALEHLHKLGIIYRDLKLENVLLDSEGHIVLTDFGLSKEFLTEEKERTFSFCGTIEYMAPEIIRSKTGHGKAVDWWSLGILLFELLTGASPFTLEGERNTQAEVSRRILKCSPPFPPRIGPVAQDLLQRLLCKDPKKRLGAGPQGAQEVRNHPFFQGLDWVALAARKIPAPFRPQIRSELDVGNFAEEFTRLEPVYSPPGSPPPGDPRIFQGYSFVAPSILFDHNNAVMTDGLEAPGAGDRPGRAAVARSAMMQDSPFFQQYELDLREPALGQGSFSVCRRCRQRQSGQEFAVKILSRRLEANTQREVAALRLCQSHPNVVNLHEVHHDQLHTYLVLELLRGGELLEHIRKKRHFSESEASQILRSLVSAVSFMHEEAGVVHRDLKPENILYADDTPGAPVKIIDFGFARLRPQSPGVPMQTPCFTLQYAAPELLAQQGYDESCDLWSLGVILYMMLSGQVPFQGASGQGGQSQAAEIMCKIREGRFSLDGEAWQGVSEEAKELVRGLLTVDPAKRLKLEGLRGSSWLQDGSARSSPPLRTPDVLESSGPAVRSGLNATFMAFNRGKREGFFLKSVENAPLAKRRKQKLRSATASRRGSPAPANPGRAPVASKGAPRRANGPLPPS

[23] = biological target: PRKCH (human) (UniProt P24723); conditions: compound 10.0 µM
[24] = biological target: RPS6KA2 KD1 (human) (UniProt Q15349); conditions: compound 10.0 µM
[25] = biological target: RPS6KA3 KD1 (human) (UniProt P51812); conditions: compound 10.0 µM
[26] = biological target: STK32B (human) (UniProt Q9NY57); conditions: compound 10.0 µM
Chain of STK32B (human) (Q9NY57 whole entry, looked up): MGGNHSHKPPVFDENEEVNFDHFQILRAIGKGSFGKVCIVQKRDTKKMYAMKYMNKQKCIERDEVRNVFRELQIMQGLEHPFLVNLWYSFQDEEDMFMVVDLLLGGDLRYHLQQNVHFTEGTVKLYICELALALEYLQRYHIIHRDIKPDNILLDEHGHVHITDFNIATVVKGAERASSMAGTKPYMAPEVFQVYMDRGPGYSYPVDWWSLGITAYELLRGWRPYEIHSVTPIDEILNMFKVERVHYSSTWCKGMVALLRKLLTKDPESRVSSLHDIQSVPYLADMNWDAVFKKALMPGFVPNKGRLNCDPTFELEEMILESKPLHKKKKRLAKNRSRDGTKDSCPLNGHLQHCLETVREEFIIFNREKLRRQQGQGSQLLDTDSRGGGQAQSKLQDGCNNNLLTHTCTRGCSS

[27] = biological target: PKN1 (human) (UniProt Q16512); conditions: compound 10.0 µM
Chain of PKN1 (human) (Q16512 whole entry, looked up): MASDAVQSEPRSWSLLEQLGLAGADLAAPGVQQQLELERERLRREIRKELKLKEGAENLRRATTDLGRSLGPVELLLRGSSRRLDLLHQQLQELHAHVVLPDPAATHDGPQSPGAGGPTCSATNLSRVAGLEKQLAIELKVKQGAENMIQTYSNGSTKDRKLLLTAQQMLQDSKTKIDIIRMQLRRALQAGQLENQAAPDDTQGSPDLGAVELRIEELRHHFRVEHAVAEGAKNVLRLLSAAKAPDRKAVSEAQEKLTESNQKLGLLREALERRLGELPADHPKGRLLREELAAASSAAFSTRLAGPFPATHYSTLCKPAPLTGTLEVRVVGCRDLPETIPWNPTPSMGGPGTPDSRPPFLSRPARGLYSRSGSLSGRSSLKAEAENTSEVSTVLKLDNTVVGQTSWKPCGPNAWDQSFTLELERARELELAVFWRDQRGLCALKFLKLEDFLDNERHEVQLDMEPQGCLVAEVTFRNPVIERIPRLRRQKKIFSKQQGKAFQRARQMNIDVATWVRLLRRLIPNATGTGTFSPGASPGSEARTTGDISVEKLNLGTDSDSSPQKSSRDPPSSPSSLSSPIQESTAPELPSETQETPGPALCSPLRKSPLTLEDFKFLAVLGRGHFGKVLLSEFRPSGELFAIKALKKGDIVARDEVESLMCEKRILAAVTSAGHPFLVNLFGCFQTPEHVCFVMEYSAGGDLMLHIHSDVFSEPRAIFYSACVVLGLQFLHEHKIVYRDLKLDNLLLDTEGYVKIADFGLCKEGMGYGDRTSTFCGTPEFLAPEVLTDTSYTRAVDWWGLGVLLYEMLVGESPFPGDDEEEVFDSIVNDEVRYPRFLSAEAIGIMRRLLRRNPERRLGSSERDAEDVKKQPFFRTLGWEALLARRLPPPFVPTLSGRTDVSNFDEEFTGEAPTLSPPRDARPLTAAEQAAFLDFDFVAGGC

Chain of PRKCI (human) (P41743 whole entry, looked up): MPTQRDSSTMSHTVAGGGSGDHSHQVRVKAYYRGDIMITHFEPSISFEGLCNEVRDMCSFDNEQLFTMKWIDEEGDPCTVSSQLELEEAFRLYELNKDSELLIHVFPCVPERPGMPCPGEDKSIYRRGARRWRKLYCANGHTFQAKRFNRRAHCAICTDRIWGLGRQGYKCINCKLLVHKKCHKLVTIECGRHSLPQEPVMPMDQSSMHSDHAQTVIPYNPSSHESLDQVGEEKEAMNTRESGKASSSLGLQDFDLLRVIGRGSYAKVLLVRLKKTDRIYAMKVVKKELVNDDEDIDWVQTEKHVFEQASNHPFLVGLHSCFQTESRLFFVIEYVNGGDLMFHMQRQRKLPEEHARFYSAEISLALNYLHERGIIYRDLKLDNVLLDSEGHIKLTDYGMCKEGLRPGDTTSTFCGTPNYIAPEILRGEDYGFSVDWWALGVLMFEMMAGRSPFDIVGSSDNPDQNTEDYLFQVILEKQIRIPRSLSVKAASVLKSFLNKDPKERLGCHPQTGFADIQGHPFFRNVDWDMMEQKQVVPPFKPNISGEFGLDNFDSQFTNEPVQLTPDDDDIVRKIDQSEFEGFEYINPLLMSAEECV
Chain of SGK3 (human) (Q96BR1 whole entry, looked up): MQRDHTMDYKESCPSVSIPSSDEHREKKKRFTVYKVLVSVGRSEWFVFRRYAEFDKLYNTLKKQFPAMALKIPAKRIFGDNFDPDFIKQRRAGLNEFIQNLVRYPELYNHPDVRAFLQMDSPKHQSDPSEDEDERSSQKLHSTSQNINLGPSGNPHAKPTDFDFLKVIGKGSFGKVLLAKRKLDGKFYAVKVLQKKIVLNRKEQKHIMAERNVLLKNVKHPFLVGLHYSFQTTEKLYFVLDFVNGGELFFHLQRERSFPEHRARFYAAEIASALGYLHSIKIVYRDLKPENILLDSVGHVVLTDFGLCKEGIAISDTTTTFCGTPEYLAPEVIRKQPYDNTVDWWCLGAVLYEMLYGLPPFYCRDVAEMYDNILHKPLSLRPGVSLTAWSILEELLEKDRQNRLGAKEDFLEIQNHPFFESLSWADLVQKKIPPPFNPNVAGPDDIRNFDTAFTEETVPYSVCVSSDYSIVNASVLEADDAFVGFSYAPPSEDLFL

| Structure (SMILES) | inhibition [1] | inhibition [2] | inhibition [3] | inhibition [4] | inhibition [5] | inhibition [6] | inhibition [7] | inhibition [8] | inhibition [9] | inhibition [10] | inhibition [12] | inhibition [13] | inhibition [14] | inhibition [15] | inhibition [16] | inhibition [18] | inhibition [20] | inhibition [21] | inhibition [22] | inhibition [24] | also measured |
| --- | --- | --- | --- | --- | --- | --- | --- | --- | --- | --- | --- | --- | --- | --- | --- | --- | --- | --- | --- | --- | --- |
| O=C(NC(NC(=S)Nc1ccc(F)c([N+](=O)[O-])c1)C(Cl)(Cl)Cl)C(c1ccccc1)c1ccccc1 (stereo not drawn) | 0% | 2% | 0% | 15% | 16% | 7% | 4% | 4% | 3% | 0% | 5% | 0% | 0% | 0% | 0% | 0% | 0% | 2% | 0% | 2% | inhibition [11]: 3%; inhibition [17]: 0%; inhibition [19]: 0%; inhibition [23]: 7%; inhibition [25]: 0%; inhibition [26]: 8%; inhibition [27]: 0% |
| COc1cc2ncn(-c3cc(OCc4ccccc4C(F)(F)F)c(C(N)=O)s3)c2cc1OC | 0% | 0% | 0% | 10% | 12% | 12% | 59% | 11% | 28% | 23% | 12% | 2% | 18% | 0% | 4% | 14% | 2% | 10% | 14% | 30% | inhibition [11]: 4%; inhibition [19]: 0%; inhibition [23]: 0%; inhibition [25]: 27%; inhibition [26]: 15%; inhibition [27]: 4% |
| O=C(c1ccc(Nc2nccc(-c3cc4ccccc4s3)n2)cc1)N1CCC(N2CCCC2)CC1 | 0% | 0% | 62% | 13% | 40% | 12% | 10% | 29% | 15% | 38% | 0% | 19% | 18% | 0% | 4% | 12% | 9% | 4% | 0% | 0% | inhibition [11]: 69%; inhibition [17]: 32%; inhibition [19]: 0%; inhibition [25]: 2%; inhibition [26]: 8%; inhibition [27]: 0% |
| C/C(O)=C(\C#N)C(=O)Nc1cc(Br)ccc1Br | 0% | 0% | 0% | 0% | 0% | 0% | 0% | 0% | 0% | 0% | 0% | 0% | 0% | 0% | 0% | 7% | 0% | 0% | 0% | 0% | inhibition [11]: 0%; inhibition [17]: 0%; inhibition [19]: 0%; inhibition [23]: 0%; inhibition [25]: 0%; inhibition [26]: 0%; inhibition [27]: 0% |
| CO[C@@H]1[C@H](N(C)C(=O)c2ccccc2)C[C@H]2O[C@]1(C)n1c3ccccc3c3c4c(c5c6ccccc6n2c5c31)C(=O)NC4 | 65% | 66% | 43% | 52% | 57% | 81% | 75% | 71% | 38% | 55% | 55% | 26% | 29% | 31% | 52% | 63% | 10% | 56% | 70% | 70% | inhibition [11]: 22%; inhibition [17]: 44%; inhibition [23]: 60%; inhibition [25]: 79%; inhibition [26]: 56%; inhibition [27]: 23% |
| O=S(=O)(NCCNC/C=C/c1ccc(Br)cc1)c1cccc2cnccc12 | 80% | 0% | 41% | 0% | 9% | 75% | 5% | 87% | 12% | 40% | 21% | 0% | 0% | 15% | 10% | 67% | 0% | 0% | 10% | 0% | inhibition [17]: 2%; inhibition [19]: 0%; inhibition [23]: 34%; inhibition [25]: 5%; inhibition [26]: 17%; inhibition [27]: 0% |
